# How the values were obtained:
# recombinant PCSK9 [1] = biological target: T1, recombinant PCSK9 (Homo sapiens, UniProt Q8NBP7); experiment: DiI-LDL Uptake Assay (% inhibition of recombinant PCSK9); type: cell-based; conditions: 2.5 ug/mL recombinant PCSK9, HepG2 cells (FIG. 1), read-out: Uptake Assay: % Inhibition of 2.5 ug/mL recombinant PCSK9 @ X compound dose; for inhibition at 20 µM: compound dose 20 uM; for inhibition at 1.25 µM: compound dose 1.25 uM; for inhibition at 2.5 µM: compound dose 2.5 uM; for inhibition at 10 µM: compound dose 10 uM; for inhibition at 5 µM: compound dose 5 uM
# T1 sequence (Q8NBP7 153-692): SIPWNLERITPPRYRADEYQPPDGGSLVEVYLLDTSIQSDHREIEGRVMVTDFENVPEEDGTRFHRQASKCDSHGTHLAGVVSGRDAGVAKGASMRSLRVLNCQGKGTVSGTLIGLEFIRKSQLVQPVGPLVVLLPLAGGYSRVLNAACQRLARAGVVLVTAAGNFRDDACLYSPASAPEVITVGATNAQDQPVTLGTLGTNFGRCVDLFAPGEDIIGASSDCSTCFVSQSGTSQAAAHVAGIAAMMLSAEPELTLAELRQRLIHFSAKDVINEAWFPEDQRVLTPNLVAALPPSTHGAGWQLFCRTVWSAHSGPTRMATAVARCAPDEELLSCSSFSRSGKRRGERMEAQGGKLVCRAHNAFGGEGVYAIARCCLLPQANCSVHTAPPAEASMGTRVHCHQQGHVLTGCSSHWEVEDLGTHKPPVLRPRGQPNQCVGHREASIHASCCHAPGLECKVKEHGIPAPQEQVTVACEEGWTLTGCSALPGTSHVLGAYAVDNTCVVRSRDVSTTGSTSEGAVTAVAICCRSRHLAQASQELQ
# Method: The cells were incubated in a 96-well plate for a total of 16 h in the absence or presence of recombinant PCSK9 (final concentration 2.5 ug/ml) protein alone or recombinant PCSK9 protein pre-mixed with indicated concentration of experimental compounds (Cmpd #). After 16 h, DiI-LDL (final concentration 5 ug/ml) was added to the incubation mixtures. After 4 h, cells are stained with Hoechst 33342 for 30 minutes, then rinsed with phosphate buffered saline, and then a final volume of 100 ul phosphate buffered saline was added to each well. The fluorescence was measured (DiI: excitation at 550 nm and emission at 590 nm; Hoechst: excitation at 355 nm, emission at 460 nm). The percent recombinant PCSK9 inhibition was calculated as [‘Compound Dose DiI Fluorescence’−‘2.5 ug/ml PCSK9-treated DiI Fluorescence’]/[‘No PCSK9 DiI Fluorescence’−‘2.5 ug/ml PCSK9-treated DiI Fluorescence’]×100%.
# Cellular DiI-LDL uptake can be measured using protocols adapted from Benjannet et al., “Effects of the prosegment and pH on the activity of PCSK9: evidence for additional processing events” J Biol Chem. 285(52): 40965-40978 (2010) and “Composition and Methods of Use of Small Molecules as Binding Ligands for the Modulation of Proprotein Convertase Subtilisin/Kexin Type 9 (PCSK9) Protein Activity” (WO2016029037), which are incorporated by reference in their entirety.
# Cells, such as HepG2, HuH7, FL83B, or a cell line transfected with a short-hairpin PCSK9 knockdown sequence such as HepG2/shPCSK9, HuH7/shPCSK9, or FL83B/shPCSK9 are plated and cultured at 37° C. for 12-24 h. Culture media is removed and replaced with fresh lipoprotein-depleted culture media supplemented with 5 ug/mL of DiI-LDL (Kalen Biomedical) or lipoprotein-depleted culture media supplemented with 5 ug/mL of DiI-LDL plus a predetermined concentration of recombinant PCSK9, for example a 10 nM final concentration of PCSK9. Lipoprotein-depleted culture media can be composed of DMEM (Invitrogen) with 10% lipoprotein-depleted fetal bovine serum (Kalen Biomedical) and supplemented with penicillin-streptomycin (Life Technologies). Cells are dosed with small molecule test compounds at doses ranging from 0 nM to 100 uM.
# Following an incubation period of specified length, such as 6 hours, Hoechst 33342 (AnaSpec) stain is added to the cell media per manufacturer's instructions and incubated for a specified length (e.g., 30 minutes). The lipoprotein-depleted media is removed and cells rinsed three times with phosphate buffered saline. A final volume of phosphate buffered saline is added back to the wells. The DiI fluorescence is measured with a plate reader using an exciting wavelength of 550 nm and the resulting emission at 590 nm is measured. The Hoechst stain fluorescence is measured with a plate reader using an exciting wavelength of 355 nm and the resulting emission at 460 nm is measured.
# Cells are analyzed by for both Hoechst stain (DNA content) and DiI-LDL fluorescence. Cells incubated with small molecule compounds that are inhibitors of PCSK9 will be expected to show increased amounts of DiI-LDL fluorescence, relative to control (no compound) specimens, and cells incubated with small molecule compounds that are activators of PCSK9 will be expected to show decreased amounts of DiI-LDL fluorescence relative to control (no compound) specimens.
# recombinant PCSK9 [2] = biological target: T1, recombinant PCSK9; experiment: LDLR Flow (FACS) Assay (% inhibition of recombinant PCSK9); type: cell-based; conditions: 5.0 ug/mL recombinant PCSK9, HuH7 cells (FIG. 2), read-out: LDLR Flow Assay: % Inhibition of 5.0 ug/mL recombinant PCSK9 @ X compound dose; for inhibition at 1.25 µM: Huh-7, compound dose 1.25 uM; for inhibition at 10 µM: Huh-7, compound dose 10 uM; for inhibition at 20 µM: Huh-7, compound dose 20 uM; for inhibition at 0.313 µM: Huh-7, compound dose 0.313 uM
# Method: The cells were incubated in 24-well plates for a total of 6 h in the absence or presence of recombinant PCSK9 protein (final concentration of 5.0 ug/ml), or in the presence of PCSK9 protein mixed with indicated concentration of experimental compound (Cmpd #). After 6 hours, the cells were released from the plate, stained with anti-LDLR antibody, then rinsed, counterstained with DAPI, and then measured by fluorescence activated cell sorting (FACS). The percent recombinant PCSK9 inhibition was calculated as [‘Compound Dose LDLR Fluorescence’−‘5.0 ug/ml PCSK9-treated LDLR Fluorescence’]/[‘No PCSK9 Basal LDLR Fluorescence’−‘5.0 ug/ml PCSK9-treated LDLR Fluorescence’]×100%.
# LDLR levels can be measured using flow cytometry or fluorescence activated cell sorting (FACS) using protocols adapted from Benjannet et al., “Effects of the prosegment and pH on the activity of PCSK9: evidence for additional processing events” J Biol Chem. 285(52): 40965-40978 (2010) and “Composition and Methods of Use of Small Molecules as Binding Ligands for the Modulation of Proprotein Convertase Subtilisin/Kexin Type 9 (PCSK9) Protein Activity” (WO2016029037), which are incorporated by reference in their entirety.
# Cells, such as HepG2, HuH7, FL83B, or a cell line transfected with a short-hairpin PCSK9 knockdown sequence such as HepG2/shPCSK9, HuH7/shPCSK9, or FL83B/shPCSK9 are plated and cultured at 37° C. for 12-24 h. Culture media is removed and replaced with fresh culture media or culture media plus a predetermined amount of recombinant PCSK9, for example a 10 nM final concentration of PCSK9. Cell culture media can be composed of DMEM (Invitrogen) with 10% fetal bovine serum (Life Technologies) supplemented with penicillin-streptomycin (Life Technologies). Cells are dosed with small molecule test compounds at doses ranging from 0 nM to 100 uM
# Following an incubation period of specified length, such as 6 hours, the media is removed and the cells are rinsed three times with a rinse solution (i.e., Dulbecco's phosphate buffered saline (D-PBS, Life Technologies) supplemented with 0.5% bovine serum albumin (BSA, Sigma) and 1 g/L glucose (Sigma)). The fluid is then removed, and cells are released from the plate using TrypLE Express (Life Technologies) per manufacturer's recommend procedures, such as incubation for 5-10 minutes at 37° C. The TyrpLE-Cell suspension is then transferred to 15 mL conical tubes, volume is increased to 2 mL with D-PBS supplemented with 0.5% BSA and […] glucose, and the tubes are centrifuged at 250× gravity for 10 minutes. Following centrifugation, the supernatant is aspirated and the cell pellet is resuspended in 100 uL D-PBS containing 0.5% BSA and […] glucose, and cells are labeled with anti-LDLR antibody per the manufacturer's recommended procedure. The cells are then pelleted by centrifugation, resuspended in 300 uL PBS and counterstained with 4′,6-Diamidino-2-phenylindole (DAPI, Cayman Chemical) as a cell viability marker, other cell viability markers such as 7-aminoactinomycin D (7AAD, Life Technologies) have also been described in the art.
# Cells are analyzed for both cell viability marker (dead cells) and LDLR in live cells using a flow cytometer per the manufacturer's operating manual. Cells incubated with small molecule compounds that are inhibitors of PCSK9 will be expected to show increased amounts of LDLR, relative to control (no compound) specimens, and cells incubated with small molecule compounds that are activators of PCSK9 will be expected to show decreased amounts of LDLR relative to control (no compound) specimens.
SMILES,inhibition at 20 µM (recombinant PCSK9 [1]) [%],inhibition at 1.25 µM (recombinant PCSK9 [2]) [%],inhibition at 10 µM (recombinant PCSK9 [2]) [%],also measured
"O=C(Nc1ccccc1)c1ccc(N2CCNCC2)cc1 [Compound 11, N-phenyl-4-(piperazin-1-yl)benzamide]",~49,–,–,–
"O=S(=O)(Nc1ccc2c(c1)CCCC2)c1ccc(C2CCNCC2)cc1 [Compound 15, 4-(piperidin-4-yl)-N-(5,6,7,8-tetrahydronaphthalen-2-yl)benzenesulfonamide]",–,–,–,inhibition at 1.25 µM (recombinant PCSK9 [1]): > 50%; inhibition at 2.5 µM (recombinant PCSK9 [1]): > 100%
"O=S(=O)(Nc1ccccc1)c1ccc(N2CCNCC2)cc1 [Compound 10, N-phenyl-4-(piperazin-1-yl)benzenesulfonamide]",> 100,> 10,> 25,inhibition at 20 µM (recombinant PCSK9 [2]): > 40%
"O=S(=O)(Nc1ccc2c(c1)CCCC2)c1ccc(N2CCNCC2)cc1 [Compound 12, 4-(piperazin-1-yl)-N-(5,6,7,8-tetrahydronaphthalen-2-yl)benzenesulfonamide]",–,~10,~25,inhibition at 1.25 µM (recombinant PCSK9 [1]): ~66%; inhibition at 2.5 µM (recombinant PCSK9 [1]): > 100%; inhibition at 20 µM (recombinant PCSK9 [2]): ~45%
"c1ccc(COc2ccc(N3CCNCC3)cc2)cc1 [Compound 1, 1-(4-(benzyloxy)phenyl)piperazine]",–,~16,~34,inhibition at 10 µM (recombinant PCSK9 [1]): > 100%
c1ccc(Oc2ccc(N3CCNCC3)cc2)cc1 [Compound 3],–,~20,~30,inhibition at 10 µM (recombinant PCSK9 [1]): > 100%
"O=S(=O)(Nc1ccccc1)c1ccc(C2CCNCC2)cc1 [Compound 14, N-phenyl-4-(piperidin-4-yl)benzenesulfonamide]",> 100,–,–,–
"O=S(=O)(c1ccc(N2CCNCC2)cc1)N1CCCC1 [Compound 5, 1-(4-(pyrrolidin-1-ylsulfonyl)phenyl)piperazine]",–,~10,~20,–
"c1cc(C2CCNCC2)ccc1OC1CCOCC1 [Compound 9, 4-(4-((tetrahydro-2H-pyran-4-yl)oxy)phenyl)piperidine]",–,–,–,inhibition at 20 µM (recombinant PCSK9 [2]): ~23%
"c1cc(N2CCNCC2)ccc1OC1CCCCC1 [Compound 13, 1-(4-(cyclohexyloxy)phenyl)piperazine]",> 100,–,~40,"inhibition at 0.625 µM (recombinant PCSK9 [2]; Huh-7, compound dose 0.625 uM): ~20%"
"Oc1cc(Oc2ccc(N3CCNCC3)cc2)ncn1 [Compound 4, 6-(4-(piperazin-1-yl)phenoxy)pyrimidin-4-ol]",–,~30,–,inhibition at 0.313 µM (recombinant PCSK9 [2]): ~19%
"Fc1ccc(Cc2ccc(N3CCNCC3)cc2)cc1 [Compound 6, 1-(4-(4-fluorobenzyl)phenyl)piperazine]",–,~15,~40,inhibition at 5 µM (recombinant PCSK9 [1]): > 100%
"c1cc(C2CCNCC2)ccc1OC1CCCCC1 [Compound 8, 4-(4-(cyclohexyloxy)phenyl)piperidine]",–,~25,~35,inhibition at 5 µM (recombinant PCSK9 [1]): > 100%; inhibition at 0.313 µM (recombinant PCSK9 [2]): ~15%
"O=S(=O)(c1ccccc1)c1ccc(N2CCNCC2)c(F)c1 [Compound 2, 1-(2-fluoro-4-(phenylsulfonyl)phenyl)piperazine]",> 100,~45,–,"inhibition at 5 µM (recombinant PCSK9 [2]; Huh-7, compound dose 5 uM): ~66%"
"O=C1CNCCN1c1ccc(Oc2ccccc2)cc1 [Compound 7, 1-(4-phenoxyphenyl)piperazin-2-one]",–,~18,–,–

# Source: patent US11925637B2, “Phenylpiperazine proprotein convertase subtilisin/kexin type 9 (PCSK9) modulators and their use” (SRX Cardio, LLC, priority 2015, dated 2024)
